Results from patent publication US11655247B2, “Nanoluc suicide substrates” (PROMEGA CORPORATION, priority 2018, dated 2023).

Experiments:
[1] = molecular target: T1, NanoLuc (Oplophorus gracilirostris, UniProt Q9GV45, A31E/A60N/A81I/F95D/I117V/K70R/L54V/L99Q/M102K/N193R/P142E/Q151K/Q38R/Q45L/V71I/Y165I); type: biochemical; conditions: for RLU (at 100 μM): relative value, Furimazine set to 1, NanoLuc, read three minutes after substrate addition
Procedure: Luminescence Assay Procedure:
Each compound to be screened was dissolved in DMSO (5 mM) and then further diluted to 100 μM in NANO-GLO® Luciferase Assay Buffer. Km values were determined by first serially diluting substrates two-fold into NANO-GLO® Luciferase Assay Buffer. Substrate dilutions were then combined with an equal volume of NanoLuc diluted to 4 ng/ml in TBS+0.01% BSA. Autoluminescence was measured by combining the 100 uM dilution of substrate with TBS+0.01% BSA. Luminescence and autoluminescence values were measured in a GloMax®-Multi+ luminometer three minutes after substrate addition. Signal decay was measured by combining equal volumes of 100 uM of substrate with 4 ng/ml NanoLuc in TBS+0.01% BSA and then samples were read in five minute intervals for two hours using a GloMax®-Multi+. Km was calculated using GraphPad Prism using nonlinear Michaelis-Menten regression. Signal half-life values were calculated using GraphPad Prism Non-linear decay, plateau set to zero.

[2] = molecular target: T1, NanoLuc; test: Inhibition of NanoLuc luciferase: blocking of furimazine luminescence after pre-incubation; type: biochemical; conditions: for Inhibition of NanoLuc (bioluminescence upon later furimazine addition): compound incubated with NanoLuc first, then furimazine (10 μM) added; for Initial luminescent signal compared with furimazine: incubated with NanoLuc in DMEM for 12 minutes
Procedure: Compounds were also tested for their ability to block furimazine luminescence with NanoLuc. Typically, NanoLuc (0.4 μg/mL) in DMEM was incubated with either furimazine or test compound (50 μM) while monitoring RLU's with a GloMax® luminometer for 10-60 minutes. After the set time, the plate was removed from the instrument, and a dose of furimazine (10 μM) was added to the well containing the test compound and monitored for 10-60 minutes.
FIGS. 3A-B depicts inhibition of Nluc luciferase by furimazine-h. Furimazine-h (10 μM) was incubated with NanoLuc in NanoGlo or DMEM for 15 or 10 minutes, respectively. This bright signal rapidly degrades to a fraction of the signal observed in the furimazine positive control wells.
FIG. 9 depicts inhibition of Nluc luciferase by furimazine-h. This is a reverse addition experiment as compared to FIG. 3. Furimazine (10 μM) was incubated with NanoLuc in NanoGlo® buffer for 15 minutes.
JRW-0855 and JRW-1088 were incubated with NanoLuc in DMEM for 12 minutes. […] After the incubation period, 10 μM furimazine was added to the well.

[3] = Stability in solution noted at preparation; type: physicochemical; conditions: note at preparation

T1 sequence (Q9GV45 28-196 with tags or gaps with the stated changes limits assumed): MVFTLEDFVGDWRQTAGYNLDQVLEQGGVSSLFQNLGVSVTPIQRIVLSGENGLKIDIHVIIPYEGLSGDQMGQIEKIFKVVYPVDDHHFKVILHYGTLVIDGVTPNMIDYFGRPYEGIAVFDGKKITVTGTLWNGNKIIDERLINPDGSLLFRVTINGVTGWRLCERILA

Compound	Light output (value set to 1) ([1]; at 2 ng/mL NanoLuc)	RLU (at 100 μM) [1]	Inhibition of NanoLuc (bioluminescence upon later furimazine addition) [2]	Initial luminescent signal compared with furimazine [2]	Stability in solution [3]
O=c1c(Cc2ccco2)nc2c(Cc3ccccc3)[nH]c(-c3ccccc3)cn1-2 [Furimazine, 8-benzyl-2-(furan-2-ylmethyl)-6-phenylimidazo[1,2-a]pyrazin-3(7H)-one, reference compound]	~2.0×10^7 RLU	1			
NCCCCCCOc1ccc(Cc2nc3c(Cc4ccccc4)[nH]c(-c4ccc(O)cc4)cn-3c2=O)cc1F [JRW-0855, 2-(4-((6-aminohexyl)oxy)-3-fluorobenzyl)-8-benzyl-6-(4-hydroxyphenyl)imidazo[1,2-a]pyrazin-3(7H)-one]		0.004	only partially inhibited	significantly lower	
CN(C)c1ccc2c(-c3cc(C(=O)NCCCCCCOc4ccc(Cc5nc6c(Cc7ccccc7)[nH]c(-c7ccc(O)cc7)cn-6c5=O)cc4F)ccc3C(=O)[O-])c3ccc(N(C)C)cc3[o+]c2c1 [JRW-0857, 4-((6-(4-((8-benzyl-6-(4-hydroxyphenyl)-3-oxo-3,7-dihydroimidazo[1,2-a]pyrazin-2-yl)methyl)-2-fluorophenoxy)hexyl)carbamoyl)-2-(3,6-bis(dimethylamino)xanthylium-9-yl)benzoate]		0.00000029	did not inhibit NanoLuc		instability in solution
O=c1c(Cc2ccc(OCCCCCCS(=O)(=O)[O-])c(F)c2)nc2c(Cc3ccccc3)[nH]c(-c3ccc(O)cc3)cn1-2.[Na+] [JRW-0892-2, Sodium 6-(4-((8-benzyl-6-(4-hydroxyphenyl)-3-oxo-3,7-dihydroimidazo[1,2-a]pyrazin-2-yl)methyl)-2-fluorophenoxy)hexane-1-sulfonate]		0.04	exemplary suicide substrates of NanoLuc		
O=C(NCCCCCCOc1ccc(Cc2nc3c(Cc4ccccc4)[nH]c(-c4ccc(O)cc4)cn-3c2=O)cc1F)c1ccc(C(=O)[O-])c(-c2c3ccc(O)cc3[o+]c3cc(O)ccc23)c1 [JRW-0893, 4-((6-(4-((8-benzyl-6-(4-hydroxyphenyl)-3-oxo-3,7-dihydroimidazo[1,2-a]pyrazin-2-yl)methyl)-2-fluorophenoxy)hexyl)carbamoyl)-2-(3,6-dihydroxyxanthylium-9-yl)benzoate]		0.05	exemplary suicide substrates of NanoLuc		
O=C(CCc1ccc2n1[B-](F)(F)[N+]1=C(c3ccc[nH]3)C=CC1=C2)NCCCCCCOc1ccc(Cc2nc3c(Cc4ccccc4)[nH]c(-c4ccc(O)cc4)cn-3c2=O)cc1F [JRW-0900, N-(6-(4-((8-benzyl-6-(4-hydroxyphenyl)-3-oxo-3,7-dihydroimidazo[1,2-a]pyrazin-2-yl)methyl)-2-fluorophenoxy)hexyl)-3-(5,5-difluoro-7-(1H-pyrrol-2-yl)-5H-5l4,6l4-dipyrrolo[1,2-c:2′,1′-f][1,3,2]diazaborinin-3-yl)propanamide]		0.00094	did not inhibit NanoLuc		
NCCCCCCCCOc1ccc(Cc2nc3c(Cc4ccccc4)[nH]c(-c4ccc(O)cc4)cn-3c2=O)cc1F [JRW-0904, 2-(4-((8-aminooctyl)oxy)-3-fluorobenzyl)-8-benzyl-6-(4-hydroxyphenyl)imidazo[1,2-a]pyrazin-3(7H)-one]			partial Nluc inhibitors		
NCCOCCOCCC(=O)NCCCCCCCCOc1ccc(Cc2cc3c(Cc4ccccc4)[nH]c(-c4ccc(O)cc4)cn-3c2=O)cc1F [JRW-0925, 3-(2-(2-aminoethoxy)ethoxy)-N-(8-(4-((1-benzyl-3-(4-hydroxyphenyl)-6-oxo-2,6-dihydropyrrolo[1,2-a]pyrazin-7-yl)methyl)-2-fluorophenoxy)octyl)propanamide]		0.02	partial Nluc inhibitors		
O=C(CCOCCOCCNC(=O)c1ccc(C(=O)[O-])c(-c2c3ccc(O)cc3[o+]c3cc(O)ccc23)c1)NCCCCCCCCOc1ccc(Cc2cc3c(Cc4ccccc4)[nH]c(-c4ccc(O)cc4)cn-3c2=O)cc1F [JRW-0926, 4-((2-(2-(3-((8-(4-((1-benzyl-3-(4-hydroxyphenyl)-6-oxo-2,6-dihydropyrrolo[1,2-a]pyrazin-7-yl)methyl)-2-fluorophenoxy)octyl)amino)-3-oxopropoxy)ethoxy)ethyl)carbamoyl)-2-(3,6-dihydroxyxanthylium-9-yl)benzoate]		0.04	exemplary suicide substrates of NanoLuc		
[N-]=[N+]=NCCCCCCOc1ccc(Cc2nc3c(Cc4ccccc4)[nH]c(-c4ccc(O)cc4)cn-3c2=O)cc1F [JRW-0975, 2-(4-((6-azidohexyl)oxy)-3-fluorobenzyl)-8-benzyl-6-(4-hydroxyphenyl)imidazo[1,2-a]pyrazin-3(7H)-one]		0.005	exemplary suicide substrates of NanoLuc		
O=c1ccc2cc(Cc3nc4c(Cc5ccccc5)[nH]c(-c5ccc(O)cc5)cn-4c3=O)ccc2o1 [JRW-0995, 8-benzyl-6-(4-hydroxyphenyl)-2-((2-oxo-2H-chromen-6-yl)methyl)imidazo[1,2-a]pyrazin-3(7H)-one]		0.009	partial Nluc inhibitors		
O=C(NCCCCCCCCOc1ccc(Cc2nc3c(Cc4ccccc4)[nH]c(-c4ccc(O)cc4)cn-3c2=O)cc1F)c1cc2ccc(O)cc2oc1=O [JRW-1018, N-(8-(4-((8-benzyl-6-(4-hydroxyphenyl)-3-oxo-3,7-dihydroimidazo[1,2-a]pyrazin-2-yl)methyl)-2-fluorophenoxy)octyl)-7-hydroxy-2-oxo-2H-chromene-3-carboxamide]			partial Nluc inhibitors		
O=C(NCCCCCCCCOc1ccc(Cc2nc3c(Cc4ccccc4)[nH]c(-c4ccc(O)cc4)cn-3c2=O)cc1F)c1cc2cc3c4c(c2oc1=O)CCCN4CCC3 [JRW-1023, N-(8-(4-((8-benzyl-6-(4-hydroxyphenyl)-3-oxo-3,7-dihydroimidazo[1,2-a]pyrazin-2-yl)methyl)-2-fluorophenoxy)octyl)-11-oxo-2,3,6,7-tetrahydro-1H,5H,11H-pyrano[2,3-f]pyrido[3,2,1-ij]quinoline-10-carboxamide]			did not inhibit NanoLuc		
O=C(NCCCCCCCCOc1ccc(Cc2nc3c(Cc4ccccc4)[nH]c(-c4ccc(O)cc4)cn-3c2=O)cc1F)c1ccc(-c2c3cc(F)c(O)cc3[o+]c3cc(O)c(F)cc23)c(C(=O)[O-])c1 [JRW-1058, 5-((8-(4-((8-benzyl-6-(4-hydroxyphenyl)-3-oxo-3,7-dihydroimidazo[1,2-a]pyrazin-2-yl)methyl)-2-fluorophenoxy)octyl)carbamoyl)-2-(2,7-difluoro-3,6-dihydroxyxanthylium-9-yl)benzoate]			exemplary suicide substrates of NanoLuc		
O=C(NCCCCCCCCOc1ccc(Cc2nc3c(Cc4ccccc4)[nH]c(-c4ccc(O)cc4)cn-3c2=O)cc1F)c1ccc(-c2c3ccc4cc(O)ccc4c3[o+]c3c2ccc2cc(O)ccc23)c(C(=O)[O-])c1 [JRW-1059, 5-((8-(4-((8-benzyl-6-(4-hydroxyphenyl)-3-oxo-3,7-dihydroimidazo[1,2-a]pyrazin-2-yl)methyl)-2-fluorophenoxy)octyl)carbamoyl)-2-(3,11-dihydroxydibenzo[c,h]xanthen-14-ium-7-yl)benzoate]			NanoLuc is not inhibited		
Cc1cc(C)n2c1C(CCNC(=O)CCC(=O)NCCCCCCCCOc1ccc(Cc3nc4c(Cc5ccccc5)[nH]c(-c5ccc(O)cc5)cn-4c3=O)cc1F)=C1C=CC=[N+]1[B-]2(F)F [JRW-1088, N1-(8-(4-((8-benzyl-6-(4-hydroxyphenyl)-3-oxo-3,7-dihydroimidazo[1,2-a]pyrazin-2-yl)methyl)-2-fluorophenoxy)octyl)-N4-(2-(5,5-difluoro-1,3-dimethyl-5H-5λ^4,6λ^4-dipyrrolo[1,2-c:2′,1′-f][1,3,2]diazaborinin-10-yl)ethyl)succinamide]			only partially inhibited	significantly lower	
